Reference: patent publication US20240207242A1, “PHARMACEUTICAL COMPOSITION COMPRISING SPHINGOSINE-1-PHOSPHATE RECEPTOR AGONIST WITH CONTROLLED PARTICLE SIZE” (LG CHEM, LTD., priority 2021, published 2024)
Structures can show the parent of a compound that is named as a salt.

Assay: Pharmacokinetic property (plasma concentration), crossover, tablets (FIG. 3)
Type: in vivo
Conditions: male beagle dogs, tablets with Samples 5 to 7
Procedure: A crossover design of taking all three tablets (active ingredients having a particle size of Samples 5 to 7) was applied to this experimentation, and the three tablets were administered to male beagle dogs once each with a 14-day wash-out period. Each dose was taken with 50 mL of water while maintaining the fasted state for at least 14 hours. The results are represented in FIG. 3.

## CC(C)n1nc(Cl)c2cc(COc3ccc4c(c3)CCC(CN3CCC(C(=O)O)CC3)=C4Cl)ccc21 [API, 1-[1-chloro-6-(3-chloro-1-isopropyl-1H-indazol-5-ylmethoxy)-3,4-dihydro-naphthalen-2-ylmethyl]-piperidine-4-carboxylic acid hydrochloride]
  particle size d(0.9) based on Cmax to show bioequivalence in terms of pharmacokinetics: ≤ 60 μm
